Consider 32 compounds from patent US20250066290A1, “DHODH INHIBITORS CONTAINING A CARBOXYLIC ACID BIOISOSTERE” (IMMUNIC AG, priority 2021, published 2025).

In data set [1] the target is N-terminally truncated recombinant hDHODH enzyme (Homo sapiens, UniProt Q02127). The experiment in a line: biochemical. Type of data set: biochemical. How it is done: Briefly, the hDHODH concentration was adjusted in a way that an average slope of approximately 0.2 AU/min served as the positive control (e.g. without inhibitor). The standard assay mixture contained 60 μM 2,6-dichloroindophenol, 50 μM decylubiquinone and 100 μM dihydroorotate. The hDHODH enzyme with or without at least six different concentrations of the compounds was added and measurements were performed in 50 mM TrisHCl, 150 mM KCl and 0.1% Triton X-100 at pH 8.0 and at 30° C. The reaction was started by adding dihydroorotate and measuring the absorption at 600 nm for 2 min. For the determination of the IC50 values, each data point was recorded in triplicate. […].

For data set [2], the system named is SARS-CoV-2. Nature of the data set: SARS-CoV-2 viral replication (YFP) assay. The class given is cell-based. The settings on record: Severe acute respiratory syndrome coronavirus 2, read-out: EC50 range.
A short description of data set [3]: Mouse pharmacokinetics, female, deuteration matched pair analysis. The class given is in vivo, mice (C57BL/6J). How it is done: In another matched pair analysis the benefit of deuteration of the N-methoxyacetamide moiety was tested: the pharmacokinetic properties of the compounds were evaluated in 3 female mice (C57BL/6J, 8 week old) after oral or intravenous cassette dosing to assess the oral bioavailability. Dose was 5 mg/kg (oral) and 1 mg/kg (intravenous), application volume was 5 mL/kg (oral) and 2 mL/kg (intravenous), vehicle was 5% solutol, 95% NaCl solution (at 0.9% saline concentration) for oral and 5% solutol, 5% ethanol, 90% NaCl solution (at 0.9% saline concentration) for intravenous application. At each designated time point (0.25, 0.5, 1, 2, 4 and 8 h after dosing for oral; 0.083, 0.25, 0.5, 1, 4 and 8 h after dosing for intravenous), 20 μL whole blood were collected from the tail vein into Li-heparin tubes, frozen on dry ice within 1-2 minutes of sampling and stored at −20° C. until processed for LC-MS analysis.

The mark [4] stands for this setting: human DHODH assay, read-out: IC50 range.

Molecules are shown by their SMILES. Where two headings read alike, the source gives them in different places. A value given as a limit tells only on which side of the number the result lay.

In general, IC50 refers to the concentration that gives 50% inhibition. For orientation: EC50 means the concentration needed to bring the measured effect to its halfway point. Broadly, the AUC(0-t) is the area under the concentration-time curve up to a stated or last time point. A higher AUC(0-t) goes with more exposure. The term Cmax denotes the peak of the concentration-time curve. As usually defined, the half-life is the time in which the quantity being followed falls by half. Low values mean rapid decline, high ones slow decline.

Sequence of N-terminally truncated recombinant hDHODH enzyme (Q02127 whole entry, looked up, the tested form may be a part): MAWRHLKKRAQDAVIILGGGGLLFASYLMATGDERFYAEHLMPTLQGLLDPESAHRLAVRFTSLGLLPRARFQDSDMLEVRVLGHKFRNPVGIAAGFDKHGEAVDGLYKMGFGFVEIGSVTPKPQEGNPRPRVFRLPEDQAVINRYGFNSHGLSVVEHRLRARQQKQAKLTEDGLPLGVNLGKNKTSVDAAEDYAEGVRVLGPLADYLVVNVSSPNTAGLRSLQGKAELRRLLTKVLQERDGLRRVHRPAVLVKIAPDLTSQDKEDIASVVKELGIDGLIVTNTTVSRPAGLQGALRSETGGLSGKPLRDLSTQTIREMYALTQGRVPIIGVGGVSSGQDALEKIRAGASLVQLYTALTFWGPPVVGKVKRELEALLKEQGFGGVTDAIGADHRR

Regarding `[2H]C([2H])([2H])ONC(=O)c1cscc1C(=O)Nc1c(F)c(F)c(-c2ccccc2OC([2H])([2H])[2H])c(F)c1F` [4/32], in data set [1] (setting [4]), the IC50 is below 100 nM. Moreover, in data set [2], the EC50 is below 1000 nM.

On to `[2H]c1c([2H])c(F)c([2H])c(-c2c(F)c(F)c(NC(=O)C3=C(C(=O)NOC([2H])([2H])[2H])COC3)c(F)c2F)c1[2H]` [5/2], for which the IC50 in data set [1] lay in the range of 100 to 1000 nM. Further, the EC50 in data set [2] is below 1000 nM.

Turning to `[2H]C([2H])([2H])Oc1cccc(-c2c(F)c(F)c(NC(=O)C3=C(C(=O)NOCCO)COC3)c(F)c2F)c1` [5/6], in data set [1], the 50% inhibitory concentration (IC50) fell in the range of 100 to 1000 nM. Also, the EC50 in data set [2] is below 10000 nM.

`[2H]C([2H])([2H])Oc1cccc(-c2c(F)c(F)c(NC(=O)C3=C(C(=O)NOCCO)CSC3)c(F)c2F)c1` [6/2]: the 50% inhibitory concentration (IC50) in data set [1] (setting [4]) was below 100 nM. Also, in data set [2], the EC50 is below 10000 nM.

For the compound `[2H]C([2H])([2H])Oc1ccccc1-c1c(F)c(F)c(NC(=O)C2=C(C(=O)NOCCO)CSC2)c(F)c1F` [6/3], in data set [1] (setting [4]), the IC50 is below 100 nM. The 50% effective concentration (EC50) in data set [2] was below 1000 nM.

`[2H]C([2H])([2H])Oc1cccc(-c2cc(F)c(NC(=O)C3=C(C(=O)NOC)CCC3)c(OC([2H])([2H])[2H])c2)c1` [8/2]: the IC50 in data set [1] is 1000 to 10000 nM. Also, in data set [2], the 50% effective concentration (EC50) is below 10000 nM.

On to `[2H]C([2H])([2H])Oc1cccc(-c2cc(F)c(NC(=O)C3=C(C(=O)NOC)CCC3)c(C#N)c2)c1` [8/3], for which the half-inhibitory concentration (IC50) in data set [1] was in the range of 1000 to 10000 nM. For the same compound, the EC50 in data set [2] was below 10000 nM.

Take `[2H]C([2H])([2H])ONC(=O)c1sccc1C(=O)Nc1c(F)cc(-c2cccc(OC([2H])([2H])[2H])c2)cc1F` [9/2]: the IC50 in data set [1] (setting [4]) is below 100 nM. For the same compound, the EC50 in data set [2] is below 1000 nM.

As for `[2H]C([2H])([2H])Oc1cccc(-c2c(F)cc(NC(=O)c3ccsc3C(=O)NOC)cc2F)c1` [9/3], in data set [1] (setting [4]), the IC50 was below 100 nM. Besides, the EC50 in data set [2] is below 1000 nM.

Consider `[2H]C([2H])([2H])Oc1cccc(-c2ccc(NC(=O)c3ccsc3C(=O)NOC)c(F)c2F)c1` [9/4], for which, in data set [1] (setting [4]), the IC50 was below 100 nM. Also, in data set [2], the concentration giving a half-maximal response (EC50) was below 1000 nM.

Consider `[2H]C([2H])([2H])Oc1cccc(-c2cc(F)c(NC(=O)c3ccsc3C(=O)NOC)c(F)c2F)c1` [9/5], for which the IC50 in data set [1] (setting [4]) was below 100 nM. Besides, the EC50 in data set [2] was below 1000 nM.

For `[2H]C([2H])([2H])ONC(=O)c1sccc1C(=O)Nc1c(F)c(F)c(-c2cccc(OC([2H])([2H])[2H])c2)c(F)c1F` [9/6], the IC50 in data set [1] (setting [4]) is below 100 nM. Also, the EC50 in data set [2] is below 1000 nM. The compound further returned an AUC(0-t) in data set [3] (C57BL/6J, mouse, in vivo, female mice, 0 to 8 h) of 25000 ng·h/mL. Besides, the Cmax in data set [3] (C57BL/6J, mouse, in vivo, female mice, 5 mg/kg oral, 1 mg/kg intravenous cassette) was 6700 ng/mL. In data set [3] (female mice, bioavailability), this compound registered an F of 76%. Also, the half-life in data set [3] (female, C57BL/6J, mouse, in vivo) was 2.5 h.

`[2H]C([2H])([2H])Oc1cccc(-c2c(F)c(F)c(NC(=O)c3ccsc3C(=O)NOCCO)c(F)c2F)c1` [9/7]: the IC50 in data set [1] (setting [4]) was below 100 nM. Besides, the EC50 in data set [2] was below 1000 nM.

Regarding `[2H]C([2H])([2H])Oc1cccc(-c2c(F)c(F)c(NC(=O)c3occc3C(=O)NOC)c(F)c2F)c1` [9/8], the IC50 in data set [1] (setting [4]) is below 100 nM. For the same compound, the EC50 in data set [2] is below 1000 nM.

`[2H]C([2H])([2H])Oc1cccc(-c2cc(F)c(NC(=O)C3=C(C(=O)NS(N)(=O)=O)COC3)c(F)c2)c1` [Example 2-1, N^3-(3,5-Difluoro-3′-(methoxy-d3)-[1,1′-biphenyl]-4-yl)-N^4-sulfamoyl-2,5-dihydrofuran-3,4-di-carboxamide]: in data set [1], the IC50 is 100 to 1000 nM. The EC50 in data set [2] lay in the range of 10000 to 25000 nM.

For the compound `[2H]C([2H])([2H])Oc1cccc(-c2c(F)c(F)c(NC(=O)C3=C(C(=O)NS(N)(=O)=O)COC3)c(F)c2F)c1` [Example 2-1/1], the IC50 in data set [1] (setting [4]) is below 100 nM. Further, the EC50 in data set [2] lay in the range of 10000 to 25000 nM.

For the compound `[2H]C([2H])([2H])Oc1cccc(-c2cc(F)c(NC(=O)C3=C(/C(N)=N/O)CCC3)c(F)c2)c1` [Example 3-1, (Z)—N-(3,5-Difluoro-3′-(methoxy-d3)-[1,1′-biphenyl]-4-yl)-2-(N-hydroxycarbamimid-oyl)cyclopent-1-ene-1-carboxamide], in data set [1], the IC50 is above 10000 nM. In addition, the EC50 in data set [2] was below 10000 nM.

As to `[2H]C([2H])([2H])Oc1cccc(-c2cc(F)c(NC(=O)C3=C(c4noc(=O)[nH]4)CCC3)c(F)c2)c1` [Example 3-2, N-(3,5-Difluoro-3′-(methoxy-d3)-[1,1′-biphenyl]-4-yl)-2-(5-oxo-4,5-dihydro-1,2,4-oxadiazol-3-yl)cyclopent-1-ene-1-carboxamide], the IC50 in data set [1] (setting [4]) was above 10000 nM. In data set [2], the EC50 was below 10000 nM.

Regarding `[2H]C([2H])([2H])Oc1cccc(-c2c(F)c(F)c(NC(=O)C3=C(c4nn[nH]n4)COC3)c(F)c2F)c1` [Example 3/1], the IC50 in data set [1] lay in the range of 1000 to 10000 nM. For the same compound, in data set [2], the EC50 was 25000 to 50000 nM.

For the compound `[2H]C([2H])([2H])Oc1cccc(-c2cc(F)c(NC(=O)C3=C(C(=O)NOCCO)CCC3)c(F)c2)c1` [Example 4/1], in data set [1], the IC50 was in the range of 1000 to 10000 nM. Besides, the EC50 in data set [2] is below 10000 nM.

Regarding `[2H]C([2H])([2H])Oc1cccc(-c2cc(F)c(NC(=O)C3=C(C(=O)NOCC#N)CCC3)c(F)c2)c1` [Example 4/3], the concentration for half-maximal inhibition (IC50) in data set [1] was 1000 to 10000 nM. The concentration for a half-maximal effect (EC50) in data set [2] fell in the range of 10000 to 25000 nM.

`[2H]C([2H])([2H])Oc1cccc(-c2cc(F)c(NC(=O)C3=C(C(=O)NOC)COC3)c(F)c2)c1` [Example 5, N^3-(3,5-Difluoro-3′-(methoxy-d3)-[1,1′-biphenyl]-4-yl)-N^4-methoxy-2,5-dihydrofuran-3,4-dicarboxamide]: in data set [1], the IC50 lay in the range of 100 to 1000 nM. Further, the EC50 in data set [2] was below 10000 nM.

For `[2H]c1c([2H])c([2H])c(-c2c(F)c(F)c(NC(=O)C3=C(C(=O)NOC([2H])([2H])[2H])COC3)c(F)c2F)c([2H])c1[2H]` [Example 5/1], the IC50 in data set [1] (setting [4]) was below 100 nM. Further, the concentration for a half-maximal effect (EC50) in data set [2] was below 1000 nM.

As to `[2H]C([2H])([2H])Oc1cccc(-c2c(F)c(F)c(NC(=O)C3=C(C(=O)NOC)CSC3)c(F)c2F)c1` [Example 6/1], the IC50 in data set [1] (setting [4]) is below 100 nM. In addition, the concentration giving a half-maximal response (EC50) in data set [2] was below 1000 nM.

As to `[2H]C([2H])([2H])Oc1cccc(-c2cnc(NC(=O)C3=C(C(=O)NOC)CCC3)c(F)c2)c1` [Example 8, N^1-(3-Fluoro-5-(3-(methoxy-d3)phenyl)pyridin-2-yl)-N^2-methoxycyclopent-1-ene-1,2-dicarboxamide], in data set [1], the IC50 was in the range of 1000 to 10000 nM. Further, in data set [2], the EC50 is above 50000 nM.

`[2H]C([2H])([2H])Oc1cccc(-c2ccc(NC(=O)C3=C(C(=O)NOC)CCC3)c3c2CCC3)c1` [Example 8/1]: in data set [1] (setting [4]), the IC50 was above 10000 nM. The half-maximal effective concentration (EC50) in data set [2] is below 10000 nM.

On to `[2H]C([2H])([2H])Oc1cccc(-c2cc(F)c(NC(=O)c3sccc3C(=O)NOC)c(F)c2)c1` [Example 10, N^2-(3,5-Difluoro-3′-(methoxy-d3)-[1,1′-biphenyl]-4-yl)-N^3-methoxythiophene-2,3-dicarboxamide], for which, in data set [1], the IC50 was below 100 nM. Further, the concentration for a half-maximal effect (EC50) in data set [2] is below 1000 nM.

Regarding `[2H]C([2H])([2H])Oc1cccc(-c2c(F)c(F)c(NC(=O)c3ccoc3C(=O)NOC)c(F)c2F)c1` [Example 10/1], in data set [1] (setting [4]), the IC50 is below 100 nM. Moreover, the EC50 in data set [2] was below 1000 nM.

As to `[2H]C([2H])([2H])Oc1cccc(-c2cc(F)c(N(C)C(=O)C3=C(C(=O)NOC)CCC3)c(F)c2)c1` [Example 13, N1-(3,5-Difluoro-3′-(methoxy-d3)-[1,1′-biphenyl]-4-yl)-N2-methoxy-N1-methylcyclopent-1-ene-1,2-dicarboxamide], in data set [1], the half-maximal inhibitory concentration (IC50) is above 10000 nM. Moreover, the EC50 in data set [2] is 10000 to 25000 nM.

As for `[2H]C([2H])([2H])Oc1cccc(-c2c(F)c(F)c(NC(=O)c3cocc3C(=O)NOC)c(F)c2F)c1` [Example 16/1], the IC50 in data set [1] (setting [4]) is below 100 nM. Further, in data set [2], the EC50 was below 1000 nM.

For `[2H]C([2H])([2H])Oc1cccc(-c2c(F)c(F)c(NC(=O)c3cc(C)sc3C(=O)NOC)c(F)c2F)c1` [Example 17-1, N2-Methoxy-5-methyl-N3-(2,3,5,6-tetrafluoro-3′-(methoxy-d3)-[1,1′-biphenyl]-4-yl)thiophene-2,3-dicarboxamide], the IC50 in data set [1] was below 100 nM. For the same compound, the EC50 in data set [2] is below 1000 nM.

Consider `[2H]C([2H])([2H])Oc1cccc(-c2c(F)c(F)c(NC(=O)c3sc(C)cc3C(=O)NOC)c(F)c2F)c1` [Example 17-2, N3-methoxy-5-methyl-N2-(2,3,5,6-tetrafluoro-3′-(methoxy-d3)-[1,1′-biphenyl]-4-yl)thiophene-2,3-dicarboxamide], for which, in data set [1] (setting [4]), the IC50 was below 100 nM. Further, in data set [2], the EC50 is below 1000 nM.
